For orientation: IC50 means the concentration that inhibits the measured activity by half. Broadly, the inhibition is the percentage by which the read-out fell short of the control. A higher inhibition goes with a response far below the control.

Consider two molecules from patent publication US5843916A, “Cyclic amp analogues, individually and in pairs, to inhibit neoplastic cell growth” (priority 1994, dated 1998).

For experiment [1], the system named is four leukemic cell lines (HL-60, K-562, myc-K562, Molt-4). Kind of experiment: Growth inhibition of leukemic cell lines. In kind it is cell-based, human. The note with it: Homo sapiens; leukemic cell lines, range.
Experiment [2] relates to Molt-4. Kind of experiment: Growth inhibition of leukemic cells (Table 12). It counts as cell-based, human. The note with it: for IC50: Homo sapiens, MOLT-4.
Experiment [3] deals with MCF-7ras breast cancer cell line. As to the kind of experiment: Synergistic growth inhibition by analogue combinations (Table 2). In kind it is cell-based, human. The following applies: footnote of Table 2. Here is the method:
(§1) All breast cancer cell lines were grown in IMEM supplemented with 10% fetal bovine serum, HEPES 20 mM, penicillin-streptomycin, and extra glutamine. Colon carcinoma cell lines were grown in EMEM supplemented with 10% FBS, EMEM, NEAA, HEPES 20 mM, extra glutamine, and penicillin-streptomycin. The cells were grown at 37° C. in humidified incubators in an atmosphere of 5% CO2.
(§2) For cell growth experiments, 2-3×10^5 cells/60 mm dish were seeded, and 24 hours later (Day 0), the medium was removed, and fresh medium and the additives were added then and every 48 hours thereafter. The compounds of the present invention were added using 100X concentrated stock solutions. At desired times, cell counts in duplicate were performed on a Coulter counter after harvesting the cells with gentle trypsinization.
Synergism quotient was defined as the net growth inhibitory effect of the analogue combination divided by the sum of the net analogue effects on growth inhibition. A quotient of >1 indicates a synergistic effect, while a quotient of <1 indicates an antagonistic effect.
Synergism of growth inhibition was determined by
treatment of cells with C-6 analogues and C-8 analogues alone
and in combination at Day 0 and Day 2 and counting the cell
^a Data are expressed as percentage growth inhibition in reference to
the growth of untreated control cells and represent average values and
ranges (in parentheses) of duplicate cell counts on three or more separat
experiments. The values for percentage growth inhibition of each analogue
^b The synergism quotient was defined as previously described.

The test system of experiment [4] is c-myc protein, Molt-4 leukemic cells. Kind of experiment: Western blotting of c-myc protein (FIG. 9B). In kind it is cell-based, human. The following applies: three days; 8-Cl-cAMP 5 μM, DBcAMP 1 mM, 8-Cl-adenosine 5 μM. Here is the method: The cells were grown in suspension culture in RPMI 1640 medium supplemented with 10% fetal bovine serum, penicillin (50 U/ml), streptomycin (500 μg/mL), 10 mM HEPES buffer, and extra glutamine. […] Surface antigen analysis of HL-60 cells was performed by flow cytometry using a panel of monoclonal antibodies reactive with either myeloid cells or monocytic cells. Terminal deoxynucleotidyl transferase (TdT) was assayed by an immunoperoxidase method using a TdT fluorescence kit. Western blotting of c-myc protein was performed using c-myc antibody 15206D11 (Scripps Clinic and Research Foundation, LaJolla, Calif.).
M, marker proteins of known molecular weight. […] The resulting supernatants were used as cell lysates. […] ND=nondetectable.
A general note: In western blotting, separated proteins are transferred to a membrane and probed.

Experiment [5] has as its system LS-174T human colon carcinoma cells. Kind of experiment: Additive growth inhibition with 8-Cl-cAMP (Table 19). In kind it is cell-based. The note with it: Homo sapiens, LS174T, 96 h; 1 μM; 4 days. Here is the method: The medium was changed every 48 hours.
At desired times, cell counts were performed in duplicate on a Coulter Counter after harvesting cells with gentle trypsinization.
The analogues were added at 24

Experiment [6] has as its system MCF-7. As to the kind of experiment: Growth of MCF-7 cells (Tables 3, 11). In kind it is cell-based. The note with it: Homo sapiens, MCF7, 72 h. Here is the method: as §1, §2
Experiment [7] deals with L1210 leukemia. Kind of experiment: Life span of L1210-inoculated BDF1 mice (Table 7).
For experiment [8], the target named is T1, Protein kinase type II (cAKII) (Bos taurus, UniProt P00515).
T1 construct: prepared from rabbit skeletal muscle and bovine heart; from tissue; host or cells: bovine heart
As to the kind of experiment: Protein kinase activation (Table 15). It counts as biochemical, bovine (heart). The note with it: half-maximum activation; U. M.: unmeasurable. Here is the method:
ATP to Kemptide as described by Ogreid et al., Eur. J. Biochem. 150: 219-227 (1985).
Protein kinases types I (cAKI) and II (cAKII) were
prepared from rabbit skeletal muscle and bovine heart,
respectively, as described in D.o slashed.skeland et al. (J. Biol.
of the protein kinase in Ogreid et al. (Eur. J. Biochem.

Experiment [9] concerns DMBA-induced mammary carcinomas. Kind of experiment: Growth of DMBA-induced mammary carcinomas, pellet (Table 4). In kind it is in vivo, rat. The note with it: for tumor growth: 10 mg pellet for 8-Cl-cAMP, implanted twice every two weeks. Here is the method: Treated tumors regress almost 100% within 30 days.
^b 8Cl-cAMP (20 mg pellet per rat, consisting of 10 mg 8Cl-cAMP and […]
mg cholesterol), was implanted on day 0 and day 14.

The test system of experiment [10] is K-562. Kind of experiment: Growth inhibition of leukemic cells (Table 12). The note with it: Homo sapiens, K562. It counts as cell-based.
Experiment [11] deals with MCF-7. As to the kind of experiment: Cell cycle analysis by flow cytometry (Table 3). It counts as cell-based, human. The note with it: 10 μM; 3 days. Here is the method:
DNA histograms were generated on FACS II by using the DNA intercalating dye propidium iodide as described by Braylan et al. in Cytometry 2: 337-343, 1982. The percentage of cells in each cycle phase was calculated by using a PDP-11/34 computer and software as described by Neckers et al., Mol. Cell. Biol. 6: 4244-4250, 1986.
Breast (MCF-7, MDA-MB-231) and colon (LS-174T) cancer cells in log
phase (untreated control) and 3 days after treatment with 8-C1-cAMP
(10 μM), N^6 -benzyl-cAMP (35 μM), and 8-Cl-adenosine (5
were analyzed for DNA content by flow cytometric analysis as described
below. Similar results were obtained with other breast and colon cancer
(Flow cytometry measures light scatter and fluorescence of single cells or particles in a stream.)

Experiment [12] deals with T2, RI, regulatory subunit of cAMP-dependent protein kinase type I (Oryctolagus cuniculus, UniProt G1TDN4).
T2 construct: from tissue
The note with it: cited from earlier work.

Experiment [13] concerns cultured human fibroblasts. The note with it: cited from earlier work.
For experiment [14], the system named is neuroblastoma cells. The note with it: two contradicting studies; cited from earlier work.
The subject of experiment [15] is mammary carcinomas induced by DMBA. The note with it: treatment of hosts; cited from earlier work.
Experiment [16] concerns spindle cell sarcoma with multiple metastasis. The note with it: cited from earlier work.
[17] abbreviates: Table 11, 8-Cl-cAMP 10 μM, 8-Cl-adenosine 5 μM, DBcAMP 500 μM, control 100.

Entries after “also recorded” stand apart in the source; their conditions may differ. Read-outs that look alike come from different tables or passages of the source.

T2 sequence (G1TDN4 1-381): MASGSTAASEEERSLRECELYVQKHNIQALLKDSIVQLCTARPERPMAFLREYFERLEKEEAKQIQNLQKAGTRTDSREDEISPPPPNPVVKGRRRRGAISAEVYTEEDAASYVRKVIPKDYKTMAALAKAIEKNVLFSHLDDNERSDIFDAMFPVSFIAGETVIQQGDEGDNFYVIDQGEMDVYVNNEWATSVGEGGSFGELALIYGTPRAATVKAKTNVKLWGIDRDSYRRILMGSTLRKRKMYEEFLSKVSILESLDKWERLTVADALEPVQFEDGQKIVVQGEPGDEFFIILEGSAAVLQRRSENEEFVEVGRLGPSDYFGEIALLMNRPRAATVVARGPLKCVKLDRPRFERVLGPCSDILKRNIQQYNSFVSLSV
T1 sequence (P00515 2-401 limits assumed): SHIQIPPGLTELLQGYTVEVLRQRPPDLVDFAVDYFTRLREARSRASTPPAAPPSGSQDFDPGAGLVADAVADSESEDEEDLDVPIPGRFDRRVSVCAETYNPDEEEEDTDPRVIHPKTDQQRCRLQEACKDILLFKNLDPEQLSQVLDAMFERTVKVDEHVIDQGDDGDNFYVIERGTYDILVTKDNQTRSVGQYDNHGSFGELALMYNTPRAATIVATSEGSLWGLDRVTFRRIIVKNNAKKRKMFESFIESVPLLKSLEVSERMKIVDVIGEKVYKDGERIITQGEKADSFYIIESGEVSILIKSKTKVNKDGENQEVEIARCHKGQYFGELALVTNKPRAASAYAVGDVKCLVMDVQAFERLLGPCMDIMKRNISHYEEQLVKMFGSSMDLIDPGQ

With `Nc1ncnc2c1nc(Cl)n2[C@@H]1O[C@@H]2COP(=O)(O)O[C@H]2[C@H]1O` [8-Cl-cAMP, 8-chloro-adenosine 3': 5'-monophosphate], the IC50 in experiment [1] fell in the range of 5 to 20 µM. Besides, in [2] (read-out: Inhibition of Growth IC50, Molt-4), the IC50 turned out to be 5 µM. The “percentage growth inhibition of each analogue when added alone” value in experiment [3] stood at 20%. Besides, the “c-myc protein level” value in experiment [4] was “marked reduction of c-myc protein level”. The molecule further showed an inhibition at 1 µM in experiment [5] of 30%. Further, the inhibition at 10 µM in experiment [6] was 57%. The activity at 10 µM in experiment [6] (10 μM, 3 days, control 100 (Table 3)) worked out at 40%. In addition, the activity at 10 µM in experiment [6] (setting [17]) was found to be 43%. Further, the “antitumor effect” value in experiment [7] (104 mg/kg bolus, seven consecutive days) is “no antitumor effect”. Further, in experiment [7] (constant infusion 104 mg/kg/day, five days), the “increase in mean life span” value is given as 37%. In experiment [8], the “Activation Constant (Ka), cAKII” value is 1.0 × 10^-7. Moreover, the “tumor growth” value in experiment [9] was “completely stopped tumor growth”. The tumor regression in experiment [9] (10 mg pellet, within 30 days) was about 100%. For the same molecule, the “Mean % of change in tumor volume” value in [9] (pellet day 0 and day 14, day 30, mean ± S.E.) is -96 ± 20%. The same molecule gave an IC50 in experiment [10] of 20 µM. Moreover, in experiment [11], the “% Cell Population in G1” value is 53%, the “% Cell Population in G2M” value came to 25%, the “% Cell Population in S” value is reported as 22% and the “cell cycle phase distribution” value is on record as “not appreciably different”. In [12] (Site A (Site 2), literature), the “relative affinity Ki (cAMP)/Ki (analogue), RI Site A” value is given as 2.71. For the same molecule, in experiment [12] (Site B (Site 1), literature), the “relative affinity Ki (cAMP)/Ki (analogue), RI Site B” value was 2.0. Further, in experiment [12], the “site selectivity of binding to RI” value was “binds to site 2 of the RI receptor”.
With `CCCC(=O)Nc1ncnc2c1ncn2[C@@H]1O[C@@H]2COP(=O)(O)O[C@H]2[C@H]1OC(=O)CCC` [DBcAMP, N^6, O^2' -dibutyryl-cAMP, reference compound], the IC50 was 500 to 1000 µM in experiment [1]; over 1000 µM in experiment [2] (read-out: Inhibition of Growth IC50, Molt-4 (symbol)); 1000 µM in experiment [10]. In experiment [2] (Molt-4), the “50% growth inhibition” value is recorded as “the 50% growth inhibition could not be obtained”. For the same molecule, the “DNA synthesis” value is on record as “not delayed” in [13] (added during first eight hours after serum addition) and “inhibitory” in experiment [13] (added more than eight hours after serum addition). In addition, in experiment [14], the “tumorigenicity” value is recorded as “decreased; also recorded: unaltered”. Also, the “c-myc protein level” value in experiment [4] is recorded as “did not affect the c-myc protein level”. Moreover, 500 µM produced 20% inhibition in [6]. The activity at 500 µM in experiment [6] (setting [17]) was found to be 80%. Besides, in [9], the “tumor growth” value is “only arrests this tumor growth without producing regression”. In experiment [15], the “tumor biochemistry during growth arrest” value is “estrogen binding decreases whereas cAMP binding and cAMP-dependent protein kinase activity increase; also recorded: sharp reduction of the translated p21 protein”. Moreover, the “tumor size” value in [16] (3-6 mg/kg iv, five hours daily, days 1-9 and 47-56) is “The tumor size plateaued and even decreased during both infusion periods”. For the same molecule, the “tumor histology” value in [16] (biopsied on days 2, 14, and 60) is “evidence of differentiation”.
